Data on seven compounds can be found in article PMC11556372 (Journal of medicinal chemistry, 2023).

Like-named read-outs stand apart in the source and are kept apart here. Where only a bound is given, the exact number is not on record here.

The Cmax is the peak of the concentration-time curve. As usually defined, the half-life is the time in which the quantity being followed falls by half. By EC50 is commonly meant the concentration needed to bring the measured effect to its halfway point. As a reminder, the efflux ratio is the permeability from basolateral to apical divided by that in the opposite direction, in the common usage.

For data set [1] the following is noted: cited from earlier work.
Data set [2] relates to SARS-CoV-2-Nluc. As to the kind of experiment: in vitro. The following applies: human.
Data set [3] concerns SARS-CoV-2. Conditions: cited from earlier work.
For data set [4] the following is noted: read-out: mean Cmax of plasma 1; AGM, 1 iv 10 mg/kg day 1 dose; cited from earlier work.
For data set [5] the following is noted: cited from earlier work. This is another data set of the same source.
Data set [6] has as its system SARS-CoV-2 WA1. The data set is described as follows: SARS-CoV-2 nucleoprotein ELISA in A549-hACE2-TMPRSS2 cells, WA1. The format is cell-based. A general note: ELISA stands for enzyme-linked immunosorbent assay.
In data set [7] the test system is SARS-CoV-2. The following applies: read-out: in vitro SARS-CoV-2 antiviral EC50; Vero E6 cells and primary lung cultures; cited from earlier work.
Data set [8] is described as follows: in vitro. The following applies: human, microsomes.
Data set [9] concerns the target T1, adenosine deaminase (Homo sapiens, UniProt P00813).
T1 sequence (P00813 1-363): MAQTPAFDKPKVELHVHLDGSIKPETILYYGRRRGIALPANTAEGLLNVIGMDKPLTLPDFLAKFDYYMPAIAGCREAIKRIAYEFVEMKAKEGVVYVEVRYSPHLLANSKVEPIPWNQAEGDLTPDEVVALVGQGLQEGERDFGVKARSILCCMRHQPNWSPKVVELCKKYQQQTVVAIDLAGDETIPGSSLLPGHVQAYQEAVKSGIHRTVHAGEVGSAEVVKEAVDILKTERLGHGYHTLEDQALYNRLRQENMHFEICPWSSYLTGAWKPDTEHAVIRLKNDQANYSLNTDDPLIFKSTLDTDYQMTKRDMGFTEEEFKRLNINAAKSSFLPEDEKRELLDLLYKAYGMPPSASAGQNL
The data set is described as follows: Metabolism by adenosine deaminase in vitro.

Data set [10] is described as follows: in vivo. The following applies: nonhuman primates, iv.
Data set [11] is described as follows: In vivo pharmacokinetics, rat. Conditions: po, 6 mg/kg.
The test system of data set [12] is three human carboxyesterases. The data set is described as follows: in vitro. The following applies: pH 7.4. The class given is in vitro ADME.
Data set [13] is described as follows: Thermodynamic solubility in pH 7 buffered solution. The format is physicochemical.
The format of data set [14] is in vitro ADME. Conditions: 2 μM, pH 7.4.
For data set [15] the following is noted: in vivo.
The format of data set [16] is in vitro ADME. Conditions: 2 μM, pH 7.4. This is another data set of the same source.
Data set [17] is classed as in vitro ADME. Conditions: 2 μM, pH 7.4. This is another data set of the same source.
The subject of data set [18] is SARS-CoV-2. As to the kind of experiment: AGM SARS-CoV-2 antiviral efficacy study.
Data set [19] is classed as in vitro ADME. Conditions: 2 μM, pH 7.4. This is another data set of the same source.
Data set [20] in a line: in vitro. The following applies: human, Caco-2, Caco-2 efflux ratio. The format is in vitro ADME. (Caco-2 cells form a polarised layer with tight junctions and transporters.)
The subject of data set [21] is Caco-2 cells. As to the kind of experiment: in vitro. The format is in vitro ADME. The following applies: Caco-2.
Data set [22] is classed as physicochemical. Conditions: 24 h, 50 μg/mL.
Data set [23] is classed as in vitro ADME. Conditions: 2 μM, pH 7.4. This is another data set of the same source.
Data set [24] is classed as in vitro ADME. The following applies: 2 μM, pH 7.4. The source holds these as a separate data set.
Data set [25] is classed as in vitro ADME. The following applies: 2 μM, pH 7.4. The source holds these as a separate data set.
The format of data set [26] is in vitro ADME. Conditions: 2 μM, pH 7.4. This is another data set of the same source.
Setting [27] is: Severe acute respiratory syndrome coronavirus 2, A549-hACE2-TMPRSS2, read-out: EC50 ± SD, WA1 (n = 2), reference run above Omicron BA.2.12.1, BA.4, BA.5.

Consider `[N-]=[N+]=N[C@]1(CO)O[C@@H](n2ccc(N)nc2=O)[C@H](O)[C@@H]1O` [R1479], for which, in data set [1] (human, in vivo, po), the estimated oral bioavailability was 6–18%.
As for `CCC(CC)COC(=O)[C@H](C)N[P@](=O)(OC[C@H]1O[C@@](C#N)(c2ccc3c(N)ncnn23)[C@H](O)[C@@H]1O)Oc1ccccc1` [compound 1, Remdesivir], in data set [1] (100 mg maintenance dose in humans), the “AUC0–24h of 1” value was 2.6 µM·h. In addition, the selectivity ratio in data set [2] is not below 300. The reduction in hospitalizations in data set [3] (high-risk nonhospitalized patients (PINETREE), 3-day iv) is on record as 87%. Besides, the “effectiveness in reducing hospitalization” value in [3] (outpatient high-risk patients, 5-day oral Paxlovid, 3-day iv 1) was not below 87%. Moreover, the “shortening of hospitalization duration” value in data set [3] (patients hospitalized with COVID-19 (ACTT-1), iv) is 5 days. Also, the Cmax in data set [4] was 12.6 µM. Besides, the half-life in data set [5] (NHPs) was 0.4 to 0.8 h. Further, the “oral bioavailability of the intact prodrug” value in [5] (nonhuman primates) is listed as less than 1%. Further, in data set [6] (setting [27]), the EC50 stood at 160 ± 0.6 nM. For the same compound, the “fold change ± SD from WA1” value in data set [6] (WA1 (n = 2), reference run above Omicron BA.2) was found to be 1.0; in [6] (WA1 (n = 2), reference run above Omicron BA.2.12.1, BA.4, BA.5), 1.0; in [6] (WA1 (n = 2), reference run above Omicron BA.2.75) it was 1.0; in data set [6] (WA1 (n = 2), reference run above Omicron BA.4.6, BF.5), 1.0; in data set [6] (WA1 (n = 2), reference run above Omicron XBB, BQ.1.1), 1.0; in [6] (WA1 (n = 3), reference run above Delta), 1.0. Besides, the “fold change ± SD from WA1” value in data set [6] (WA1 (n = 7), reference run above Omicron BA.1) is 1.0.
As to `N#C[C@@]1(c2ccc3c(N)ncnn23)O[C@H](CO)[C@@H](O)[C@H]1O` [compound 2, GS-441524], the EC50 in data set [7] is 1000 to 2000 nM; in [6] (setting [27]), 7360 ± 3460 nM. Further, the half-life in data set [8] was more than 8 h; in data set [10] it was 2.6 to 2.7 h. In data set [9], the “metabolism by adenosine deaminase” value is “weak substrates or inhibitors”.
As to `CC(C)C(=O)OC[C@H]1O[C@@](C#N)(c2ccc3c(N)ncnn23)[C@H](O)[C@@H]1O` [compound 3, ((2R,3S,4R,5R)-5-(4-Aminopyrrolo[2,1-f][1,2,4]triazin-7-yl)-5-cyano-3,4-dihydroxytetrahydrofuran-2-yl)methyl Isobutyrate], the “AUC0–24 of 3” value in [11] was “BLQ”. Further, the half-life at 2 μM in [12] is less than 4.3 min. For the same compound, in data set [13], the “fold improved pH 7 solubility over 2” value is on record as more than 10 fold and the “fold improved pH 7 solubility over 6” value is recorded as more than 100 fold. The “GI S9 stability, human” value in data set [14] is <2/<2/<2/<2 min. In [15], the “simulated human Cave” value is “≈ 4.6 μM”. The “GI S9 stability, dog” value in [16] is reported as <2/<2/<2/<2 min. For the same compound, in data set [17], the “GI S9 stability, cynomolgus monkey” value is listed as <2/<2/<2/<2 min. Further, the “SARS-CoV-2 infectious and RNA loads in throat swabs” value in data set [18] (1, 2, and 6 dpi, both dose groups) was “significant reductions”. The “infectious viral loads in the BALF” value in [18] (60 or 120 mg/kg oral once daily, throughout infection) is “statistically significant decreases”. For the same compound, the “genomic RNA loads in BALF” value in data set [18] (60 or 120 mg/kg, exception 60 mg/kg at day 1 post-infection) is listed as “significantly reduced at nearly all study time points assessed”. In addition, the “infectious virus in throat and nasal swabs” value in data set [18] (after day 4 post-infection, either dose group) was “no detectable infectious virus”. For the same compound, the “viral RNA levels in terminal respiratory tissues” value in [18] (study day 6, both doses) is reported as “significant reductions of viral RNA levels in 5 out of the 6 respiratory tissues evaluated”. For the same compound, the “GI S9 stability, rat” value in [19] is listed as <2/<2/<2/<2 min. Moreover, in data set [9], the “metabolism by adenosine deaminase” value is “weak substrates or inhibitors”. The efflux ratio at 2 h in data set [20] is less than 3. The “fold improved forward permeability over parent 2” value in [21] is given as ~ 10 fold. Besides, in data set [22], the “solution stability, pH 2” value is given as not below 94% and the “solution stability, pH 7” value is not below 96%. The EC50 in data set [6] (setting [27]) stood at 1570 ± 210 nM. In addition, the EC50 in data set [6] (Severe acute respiratory syndrome coronavirus 2, A549-hACE2-TMPRSS2, read-out: EC50 ± SD, WA1 (n = 2), reference run above Omicron BA.4.6, BF.5) was determined as 3960 ± 290 nM.
Regarding `CC(=O)OC[C@H]1O[C@@](C#N)(c2ccc3c(N)ncnn23)[C@H](O)[C@@H]1O` [compound 5, ((2R,3S,4R,5R)-5-(4-Aminopyrrolo[2,1-f][1,2,4]triazin-7-yl)-5-cyano-3,4-dihydroxytetrahydrofuran-2-yl)methyl Acetate], in [19], the “GI S9 stability, rat” value is given as less than 2 min.
On to `CC(C)C(=O)OC[C@H]1O[C@@](C#N)(c2ccc3c(N)ncnn23)[C@H](OC(=O)C(C)C)[C@@H]1OC(=O)C(C)C` [compound 6], for which the “GI S9 stability, human” value in data set [14] was <2/<2/<2/<2 min. Also, the “GI S9 stability, dog” value in data set [16] is on record as <2/<2/<2/<2 min. For the same compound, in data set [17], the “GI S9 stability, cynomolgus monkey” value is reported as <2/<2/<2/<2 min. In [19], the “GI S9 stability, rat” value was <2/<2/<2/<2 min. In data set [22], the “solution stability, pH 2” value was not below 96% and the “solution stability, pH 7” value is reported as not below 98%.
In the case of `CC(=O)OC[C@H]1O[C@@](C#N)(c2ccc3c(N)ncnn23)[C@H](OC(C)=O)[C@@H]1OC(C)=O` [compound 7], the “liver S9 stability, human” value in [23] is on record as <2/<2/<2/<2 min. Besides, in data set [24], the “liver S9 stability, rat” value is recorded as <2/<2/<2/<2 min. Also, the “liver S9 stability, cynomolgus monkey” value in [25] is recorded as <2/<2/<2/<2 min. Also, the “liver S9 stability, dog” value in data set [26] is <2/<2/<2/<2 min.
